Reference: PubChem BioAssay (NCI)
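Protocol summary: plate cells (96-well), add compound at 5 concentrations, incubate 48 h, interpolate endpoints linearly. At the TGI there is no net growth.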

Experiments:
Assay in all cases: growth of human tumour cells (NCI), 48 h
786-0 renal = system: 786-0 renal
A498 renal = system: A498 renal
A549 NSCLC = system: A549 NSCLC
ACHN renal = system: ACHN renal
BT-549 breast = system: BT-549 breast
CAKI-1 renal = system: CAKI-1 renal
CCRF-CEM leukemia = system: CCRF-CEM leukemia
COLO 205 colon = system: COLO 205 colon
DU-145 prostate = system: DU-145 prostate
EKVX NSCLC = system: EKVX NSCLC
HCC-2998 colon = system: HCC-2998 colon
HCT-116 colon = system: HCT-116 colon
HCT-15 colon = system: HCT-15 colon
HL-60(TB) leukemia = system: HL-60(TB) leukemia
HOP-62 NSCLC = system: HOP-62 NSCLC
HOP-92 NSCLC = system: HOP-92 NSCLC
HS 578T breast = system: HS 578T breast
HT29 colon = system: HT29 colon
IGROV1 ovarian = system: IGROV1 ovarian
K-562 leukemia = system: K-562 leukemia
KM12 colon = system: KM12 colon
LOX IMVI melanoma = system: LOX IMVI melanoma
M14 melanoma = system: M14 melanoma
MALME-3M melanoma = system: MALME-3M melanoma
MCF7 breast = system: MCF7 breast
MDA-MB-231 breast = system: MDA-MB-231 breast
MDA-MB-435 = system: MDA-MB-435
MDA-N = system: MDA-N
MOLT-4 leukemia = system: MOLT-4 leukemia
NCI-H226 lung = system: NCI-H226 lung
NCI-H23 lung = system: NCI-H23 lung
NCI-H460 lung = system: NCI-H460 lung
NCI-H522 lung = system: NCI-H522 lung
NCI/ADR-RES ovarian = system: NCI/ADR-RES ovarian
OVCAR-3 ovarian = system: OVCAR-3 ovarian
OVCAR-4 ovarian = system: OVCAR-4 ovarian
OVCAR-8 ovarian = system: OVCAR-8 ovarian
PC-3 prostate = system: PC-3 prostate
RXF 393 renal = system: RXF 393 renal
SF-268 CNS = system: SF-268 CNS
SF-295 CNS = system: SF-295 CNS
SF-539 CNS = system: SF-539 CNS
SK-MEL-2 melanoma = system: SK-MEL-2 melanoma
SK-MEL-5 melanoma = system: SK-MEL-5 melanoma
SK-OV-3 ovarian = system: SK-OV-3 ovarian
SN12C renal = system: SN12C renal
SNB-19 CNS = system: SNB-19 CNS
SNB-75 CNS = system: SNB-75 CNS
SR leukemia = system: SR leukemia
SW-620 colon = system: SW-620 colon
T-47D breast = system: T-47D breast
TK-10 renal = system: TK-10 renal
U251 CNS = system: U251 CNS
UACC-257 melanoma = system: UACC-257 melanoma
UACC-62 melanoma = system: UACC-62 melanoma
UO-31 renal = system: UO-31 renal
OVCAR-5 ovarian = system: OVCAR-5 ovarian
RPMI-8226 leukemia = system: RPMI-8226 leukemia
SK-MEL-28 melanoma = system: SK-MEL-28 melanoma

In the case of `OC1(c2ccccc2)CSc2ncnn21` (centres undefined), the TGI (786-0 renal) is reported as > 100 µM, the TGI (A498 renal) is reported as > 100 µM and the TGI (A549 NSCLC) is reported as > 100 µM. For the same compound, the TGI (ACHN renal) was > 100 µM, the TGI (BT-549 breast) was > 100 µM and the TGI (CAKI-1 renal) was > 100 µM. For the same compound, the TGI (CCRF-CEM leukemia) was > 100 µM, the TGI (COLO 205 colon) was > 100 µM and the TGI (DU-145 prostate) was > 100 µM. The TGI (EKVX NSCLC) was > 100 µM, the TGI (HCC-2998 colon) was > 100 µM and the TGI (HCT-116 colon) was > 100 µM. The TGI (HCT-15 colon) was > 100 µM, the TGI (HL-60(TB) leukemia) was > 100 µM and the TGI (HOP-62 NSCLC) was > 100 µM. The TGI (HOP-92 NSCLC) was > 100 µM, the TGI (HS 578T breast) was > 100 µM and the TGI (HT29 colon) was > 100 µM. For the same compound, the TGI (IGROV1 ovarian) was > 100 µM, the TGI (K-562 leukemia) was > 100 µM and the TGI (KM12 colon) was > 100 µM. For the same compound, the TGI (LOX IMVI melanoma) was > 100 µM, the TGI (M14 melanoma) was > 100 µM and the TGI (MALME-3M melanoma) was > 100 µM. For the same compound, the TGI (MCF7 breast) was > 100 µM, the TGI (MDA-MB-231 breast) was > 100 µM and the TGI (MDA-MB-435) was > 100 µM. For the same compound, the TGI (MDA-N) was > 100 µM, the TGI (MOLT-4 leukemia) was > 100 µM and the TGI (NCI-H226 lung) was > 100 µM. The TGI (NCI-H23 lung) was > 100 µM, the TGI (NCI-H460 lung) was > 100 µM and the TGI (NCI-H522 lung) was > 100 µM. The TGI (NCI/ADR-RES ovarian) was > 100 µM, the TGI (OVCAR-3 ovarian) was > 100 µM and the TGI (OVCAR-4 ovarian) was > 100 µM. The TGI (OVCAR-8 ovarian) was > 100 µM, the TGI (PC-3 prostate) was > 100 µM and the TGI (RXF 393 renal) was > 100 µM. The TGI (SF-268 CNS) was > 100 µM, the TGI (SF-295 CNS) was > 100 µM and the TGI (SF-539 CNS) was > 100 µM. The TGI (SK-MEL-2 melanoma) was > 100 µM, the TGI (SK-MEL-5 melanoma) was > 100 µM and the TGI (SK-OV-3 ovarian) was > 100 µM. For the same compound, the TGI (SN12C renal) was > 100 µM, the TGI (SNB-19 CNS) was > 100 µM and the TGI (SNB-75 CNS) was > 100 µM. The TGI (SR leukemia) was > 100 µM, the TGI (SW-620 colon) was > 100 µM and the TGI (T-47D breast) was > 100 µM. The TGI (TK-10 renal) was > 100 µM, the TGI (U251 CNS) was > 100 µM and the TGI (UACC-257 melanoma) was > 100 µM. The TGI (UACC-62 melanoma) was > 100 µM and the TGI (UO-31 renal) was > 100 µM.

With `O=c1[nH]cnc2[nH]cc(CN3CCCCC3)c12` the TGI (786-0 renal) was > 100 µM, the TGI (A498 renal) was > 100 µM and the TGI (A549 NSCLC) was > 100 µM. For the same compound, the TGI (ACHN renal) was > 100 µM, the TGI (BT-549 breast) was > 100 µM and the TGI (CAKI-1 renal) was > 100 µM. The TGI (CCRF-CEM leukemia) was 36.2 µM, the TGI (COLO 205 colon) was > 100 µM and the TGI (DU-145 prostate) was > 100 µM. The TGI (EKVX NSCLC) was > 100 µM, the TGI (HCT-116 colon) was 30.6 µM and the TGI (HCT-15 colon) was > 100 µM. For the same compound, the TGI (HL-60(TB) leukemia) was 38.2 µM, the TGI (HOP-62 NSCLC) was > 100 µM and the TGI (HOP-92 NSCLC) was > 100 µM. For the same compound, the TGI (HS 578T breast) was > 100 µM, the TGI (HT29 colon) was > 100 µM and the TGI (IGROV1 ovarian) was > 100 µM. The TGI (K-562 leukemia) was > 100 µM, the TGI (KM12 colon) was > 100 µM and the TGI (LOX IMVI melanoma) was > 100 µM. The TGI (M14 melanoma) was > 100 µM, the TGI (MALME-3M melanoma) was > 100 µM and the TGI (MCF7 breast) was > 100 µM. For the same compound, the TGI (MDA-MB-231 breast) was > 100 µM, the TGI (MDA-MB-435) was > 100 µM and the TGI (MDA-N) was > 100 µM. The TGI (MOLT-4 leukemia) was > 100 µM, the TGI (NCI-H226 lung) was > 100 µM and the TGI (NCI-H23 lung) was > 100 µM. The TGI (NCI-H460 lung) was 43.8 µM, the TGI (NCI-H522 lung) was > 100 µM and the TGI (NCI/ADR-RES ovarian) was > 100 µM. For the same compound, the TGI (OVCAR-3 ovarian) was > 100 µM, the TGI (OVCAR-4 ovarian) was > 100 µM and the TGI (OVCAR-5 ovarian) was > 100 µM. The TGI (OVCAR-8 ovarian) was > 100 µM, the TGI (PC-3 prostate) was > 100 µM and the TGI (RPMI-8226 leukemia) was 87.2 µM. For the same compound, the TGI (RXF 393 renal) was > 100 µM, the TGI (SF-268 CNS) was > 100 µM and the TGI (SF-295 CNS) was > 100 µM. For the same compound, the TGI (SF-539 CNS) was > 100 µM, the TGI (SK-MEL-2 melanoma) was > 100 µM and the TGI (SK-MEL-28 melanoma) was > 100 µM. For the same compound, the TGI (SK-MEL-5 melanoma) was > 100 µM, the TGI (SK-OV-3 ovarian) was > 100 µM and the TGI (SN12C renal) was > 100 µM. For the same compound, the TGI (SNB-19 CNS) was > 100 µM, the TGI (SNB-75 CNS) was > 100 µM and the TGI (SR leukemia) was > 100 µM. For the same compound, the TGI (SW-620 colon) was > 100 µM, the TGI (T-47D breast) was > 100 µM and the TGI (TK-10 renal) was > 100 µM. The TGI (U251 CNS) was > 100 µM, the TGI (UACC-257 melanoma) was 87.3 µM and the TGI (UACC-62 melanoma) was > 100 µM. For the same compound, the TGI (UO-31 renal) was > 100 µM.
